# Results as given in ChEMBL document CHEMBL3507680, “University of Dundee, Gates Library screen for HepG2 cell viability”.
# Assay: Human HepG2 cell viability assay in 384 well format
# Format: toxicity, cell-based
# Design: dose 125 nL, time 70.5 hour; concentration not given beside the values
# Details: HepG2 cells, read-out: Inhibition
row,SMILES,cytotoxicity at 70.5 h
1,COc1ccccc1CC(=O)NS(C)(=O)=O,-10.7%
2,CC1=N[C@@]2(CC[C@@H]3CN(Cc4ccc(C)cc4)C[C@@H]32)C(=O)N1CC1CC1,-12.4%
3,Cc1ccc([C@@H]2CN(C(=O)c3ccc[nH]3)C[C@H]2NC(=O)C2CC2)cc1,-8.09%
4,COCCCNC(=O)C(C)n1cc(Br)cn1 (centres undefined),16.8%
5,CC(C)NC(=O)Nc1ccc(CNCc2cccc(OC(F)F)c2)cc1,29.1%
6,Fc1ccc(OCCCNC2=NCCN2)cc1,-14.3%
7,CC(=O)N1C[C@@H]2CC[C@H](C1)N(Cc1ccc(Cn3cccn3)cc1)C2,-19.2%
8,COc1cc(C(C)=O)ccc1OCC(=O)N(C)Cc1cnn(C)c1,-7.56%
9,Cn1ccnc1CN1C[C@@H](CN2CCCCC2)[C@@H](CO)C1,-6.64%
10,O=C([C@@H]1COC[C@H]2CN(C3CCOCC3)C[C@H]21)N1CCOCC1,-1.42%
11,O=C1[C@H]2CN(CC3CCOCC3)C[C@H]2CN1Cc1cccc(F)c1,4.65%
12,CC(C)CNC(=O)C1=NOC2(CCN(Cc3ccoc3)C2)C1 (centres undefined),-0.398%
13,CC(C)c1nn(C)c(N(C)C)c1CNCc1ccc(CO)c(F)c1,1.57%
14,Cc1cccc(C(=O)NCCNS(=O)(=O)c2cccs2)c1C,-5.88%
15,CCCNC(=O)C1CCN(CC(O)c2ccc(C(F)(F)F)cc2)CC1 (centres undefined),-5.86%
16,COc1ccccc1CC(=O)NS(=O)(=O)c1cncc(Br)c1,4.46%
17,Cc1ccc(C(=O)N2CCC3(CCC(=O)N(C(C)C)C3)CC2)c(O)c1,29.9%
18,O=C(NC1CCCN(CCc2ccccc2)C1)c1ccccn1 (centres undefined),-1.94%
19,O=C(Cc1cnc(-c2c(Cl)cccc2Cl)s1)N1CCC2(CC1)OCCO2,-14.1%
20,Cn1cc(CC2CCN(C(=O)NCc3cccc(C#N)c3)C2)cn1 (centres undefined),-5%
21,COCC(=O)N1CCC(c2nccnc2Oc2cccnc2C)CC1,-34%
22,CCOCCOCc1cccc(CNc2cncc(-n3cccn3)n2)c1,-2.12%

row,SMILES,cytotoxicity at 70.5 h
1,CCN1CCC2(CCC(=O)N2Cc2cccc(C)n2)CC1,-4.89%
2,COc1ccc2c(c1)OC1(CCN(Cc3ccc(C)cc3)CC1)CC2=O,7.29%
3,CCC(CC)NC(=O)Cn1nc(C)nc1-c1ccccc1,-6.22%
4,CCCS(=O)(=O)N1CCN(c2cc(-n3nc(C)cc3C)nc(C)n2)CC1,-10.3%
5,CCS(=O)(=O)c1ccc(NCc2csc(C(C)C)n2)cc1,4.81%
6,Cc1[nH]/c(=N\C(=O)c2csc(NC3CC3)n2)sc1C,-5.91%
7,COc1cc(C)ccc1OCCN1CC[C@@]2(O)CCNC[C@H]2C1,-4.21%
8,COc1ccc(CNC[C@H]2COCc3nc4cc(F)ccc4n32)cc1,-14.9%
9,Cn1cc(CN2CC[C@H]3OCC[C@@H](C(=O)N4CCCCO4)[C@@H]3C2)cn1,-15.8%
10,O=C(c1cnc2ccc(F)cc2c1NCc1ccco1)N1CCCC1,28.7%
11,COc1ccccc1OCC(=O)NS(=O)(=O)c1cccnc1,-8.19%
12,Cc1nn(C)c(Cl)c1C1CCCN1CCc1ccccn1 (centres undefined),1.44%
13,CCOc1ccnc(N2CCN(C(=O)CCc3cnn(C)c3)CC2)n1,-4.83%
14,CC(NC(=O)CCCOc1ccccc1Cl)c1ccncc1 (centres undefined),13.5%
15,Cc1nc2c(c(N(C)C)n1)CCN(C(=O)c1sccc1S(N)(=O)=O)C2,-7%
16,CCN(CC)S(=O)(=O)N1CCCN(CC(=O)NC(C)C)CC1,6.63%
17,Cc1nc(Nc2ncccn2)cc(C2CCCN2Cc2ncc[nH]2)n1 (centres undefined),-2.88%
18,O=C(O)c1cc(-c2cn[nH]c2)cc(S(=O)(=O)N2CCSCC2)c1,-4.23%
19,Cc1ccccc1CC(=O)N1CC[C@@](O)(CNS(C)(=O)=O)[C@H](O)C1,0.727%
20,O=c1ncn(-c2ccccc2F)c2ncccc12,-5.32%
21,C=C(C)Cn1ccc2cc(OC)c(F)cc2c1=O,-2.43%
22,Cn1ccnc1CN1CCN(Cc2noc(-c3ccccc3)n2)CC1,-4.14%
